Results reported in patent publication US20260126455A1, “Methods and Dosing Regimens for Preventing or Delaying Onset of Alzheimer's Disease and Other Forms of Dementia and Mild Cognitive Impairment” (priority 2020, published 2026).
Where “and” joins values, the source holds several entries; their conditions need not be identical. Equal entries are not always repeated. Where two headings read alike, the source gives them in different places.

What was measured:
[1] = human, in vivo; cited from earlier work
[2] = test system: lipoprotein-associated phospholipase-A2; settings: in vivo; cited from earlier work
[3] = over 20 epidemiological clinical trials; cited from earlier work
5HT6 receptor = 5HT6 receptor (Homo sapiens, UniProt P50406); settings: in vivo; cited from earlier work
beta-secretase = target: T1, beta-secretase (Homo sapiens, UniProt P56817); settings: in vivo; cited from earlier work
T1 construct: from tissue; host or cells: clinical-trial subjects (in vivo)

SK-N-MC neurons [4] = experiment: Abeta42 immunocytochemistry: intracellular Abeta42 labeling in SK-N-MC cells exposed to Abeta42 plus A7R compounds; assay type: cell-based, human
SK-N-MC neurons [5] = experiment: Morphological scoring of SK-N-MC cells exposed to Abeta42 plus A7R compounds; assay type: cell-based, human
[6] = test system: A7R-transfected SK-N-MC human neuroblastoma cells; settings: cited from earlier work; for Intracellular accumulation of the peptide: 100 nanomolar
[7] = test system: Human neuroblastoma SK-N-MC cells, transfected with A7R; settings: 100 nanomolar for 6 hours; cited from earlier work
C57BL/6J mice = experiment: CognitionWall discrimination learning test, 2-week study; assay type: in vivo
Method: This 2-week study was comprised of 2 groups of C57BL/6J mice as outlined in Table 5. Mice were infused with 100 μl pertussis toxin (3.0×10−3 μg/μl in saline) or 100 μl saline into the tail vein according to Table 5 to affect the BBB. Subsequently, Abeta42 (100 μl of 6.9 μM in saline) was infused into the tail vein. Groups 1 and 2 received 2 cycles of Abeta42 treatment.
Deficits in learning behavior correlated with degenerating neurons in mice treated with pertussis toxin and Abeta42 as compared with untreated mice in the 2-week study. The CognitionWall discrimination learning test was used to test learning behaviors in the mice. Fifteen minutes before the start of the discrimination learning (DL) and reversal learning (RL) task at 16.30 h on the 3th light phase in the Phenotyper, the CognitionWall was placed in front of the reward dispenser spout. After placement, several free rewards were dispensed and standard chow was removed from the feeding station. Mice had to learn to earn their food (Dustless Precision Pellets, 14 mg) by going through the left hole in the wall for the next 2 days (DL1 and DL2). The middle and right hole were deemed incorrect holes and passing through these holes was without any consequences. During the subsequent 2 days, the rewarded hole was switched to the right hole (reversal learning; RL1 and RL2). During DL and RL, one reward was delivered for every fifth entry through the correct hole (FR5 schedule of reinforcement). Mice were not required to make 5 consecutive correct entries (i.e., no chaining requirement). […] Online display of the number of earned rewards was used to evaluate food intake during the experiment. Based on pilot experiments to quantify the number of food rewards required to maintain body weight, mice were fed extra reward pellets when they earn fewer than 100 rewards per day for 2 or more consecutive days. […]

A7R [8] = target: A7R (Rattus norvegicus, UniProt Q05941); settings: rat receptors; read-out: Ki, binding to A7R; cited from earlier work
A7R [9] = settings: guinea pig receptors; read-out: Ki, binding to A7R; cited from earlier work
amyloid = settings: Alzheimer's disease subjects; Solanezumab: Phase 3, mild Alzheimer's disease; cited from earlier work
ischemic brain = settings: rat, in vivo; cited from earlier work

T1 sequence (P56817 46-501): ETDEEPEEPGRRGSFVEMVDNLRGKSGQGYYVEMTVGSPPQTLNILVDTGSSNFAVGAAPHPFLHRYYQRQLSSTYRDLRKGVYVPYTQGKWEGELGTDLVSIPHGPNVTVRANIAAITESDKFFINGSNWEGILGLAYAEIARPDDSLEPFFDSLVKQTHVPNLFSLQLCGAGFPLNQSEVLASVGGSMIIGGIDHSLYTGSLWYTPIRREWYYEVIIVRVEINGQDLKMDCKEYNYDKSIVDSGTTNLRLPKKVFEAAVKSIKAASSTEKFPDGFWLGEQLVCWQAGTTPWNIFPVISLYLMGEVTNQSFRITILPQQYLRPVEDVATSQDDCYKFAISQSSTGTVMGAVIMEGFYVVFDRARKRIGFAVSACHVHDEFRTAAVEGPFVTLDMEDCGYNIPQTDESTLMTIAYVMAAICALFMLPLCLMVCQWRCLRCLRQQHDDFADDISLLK
Sequence of amyloid (P05067 672-711): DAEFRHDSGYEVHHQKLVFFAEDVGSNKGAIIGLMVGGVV
Sequence of 5HT6 receptor (P50406 whole entry): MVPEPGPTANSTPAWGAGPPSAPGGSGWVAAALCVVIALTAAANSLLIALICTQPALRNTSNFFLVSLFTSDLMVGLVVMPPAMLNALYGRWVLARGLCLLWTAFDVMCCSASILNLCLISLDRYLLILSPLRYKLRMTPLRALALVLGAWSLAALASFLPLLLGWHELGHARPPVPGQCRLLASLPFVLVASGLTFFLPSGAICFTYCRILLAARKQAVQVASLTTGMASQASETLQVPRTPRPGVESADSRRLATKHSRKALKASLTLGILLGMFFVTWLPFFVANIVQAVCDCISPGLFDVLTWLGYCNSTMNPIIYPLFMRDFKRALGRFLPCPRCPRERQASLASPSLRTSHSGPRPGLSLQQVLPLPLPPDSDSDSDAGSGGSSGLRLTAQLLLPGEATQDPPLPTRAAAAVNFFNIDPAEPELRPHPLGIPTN
Sequence of A7R (Rattus norvegicus, UniProt Q05941) (Q05941 23-502): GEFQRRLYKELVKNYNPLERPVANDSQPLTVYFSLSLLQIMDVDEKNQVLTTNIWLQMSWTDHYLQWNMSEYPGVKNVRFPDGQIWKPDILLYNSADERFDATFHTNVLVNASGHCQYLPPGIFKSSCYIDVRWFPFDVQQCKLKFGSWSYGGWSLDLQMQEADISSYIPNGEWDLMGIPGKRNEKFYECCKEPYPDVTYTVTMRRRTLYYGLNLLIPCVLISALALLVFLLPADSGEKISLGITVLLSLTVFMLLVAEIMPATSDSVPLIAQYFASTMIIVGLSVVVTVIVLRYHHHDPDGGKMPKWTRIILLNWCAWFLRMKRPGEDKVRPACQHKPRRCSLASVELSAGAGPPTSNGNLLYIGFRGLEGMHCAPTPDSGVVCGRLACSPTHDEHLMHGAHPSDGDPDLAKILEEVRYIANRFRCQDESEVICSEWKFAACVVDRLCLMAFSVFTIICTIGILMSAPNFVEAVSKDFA

## CC(C)c1c(C(=O)Nc2ccccc2)c(-c2ccccc2)c(-c2ccc(F)cc2)n1CC[C@@H](O)C[C@@H](O)CC(=O)O [Atorvastatin]
[1]
  Cognitive measures: did not improve cognitive measures

## CCN(CC)CCN(Cc1ccc(-c2ccc(C(F)(F)F)cc2)cc1)C(=O)Cn1c(SCc2ccc(F)cc2)nc(=O)c2c1CCC2 [Darapladib]
[2]
  BBB leakage: reducing BBB leakage
  Progression of atherosclerosis: blocked the progression of atherosclerosis

## CC(C)Cc1ccc(C(C)C(=O)O)cc1 (stereo not drawn) [Ibuprofen]
[3]
  Risk of Alzheimer's disease: reduce the risk of Alzheimer's disease

## COc1ccc2c(c1)c(CC(=O)O)c(C)n2C(=O)c1ccc(Cl)cc1 [Indomethacin]
[3]
  Risk of Alzheimer's disease: reduce the risk of Alzheimer's disease

## O=S(=O)(c1ccccc1)c1cnc2c(N3CCNCC3)cccc2c1 [Intepirdine]
5HT6 receptor
  Goals of a pivotal trial: failed to meet the goals of a pivotal trial

## NC1=N[C@@]2(c3cc(NC(=O)c4ccc(F)cn4)ccc3F)COC[C@H]2CS1 [LY2886721]
beta-secretase
  Reason for stopping the clinical studies: toxicity

## CN1CCCC1c1cccnc1 (stereo not drawn) [Nicotine]
SK-N-MC neurons [4]
  Abeta42 immunolabeling scores 2 hr: 1.7
  Abeta42 immunolabeling scores 6 hr: 0.3
SK-N-MC neurons [5]
  Morphologic scores 2 hr: 2.7
  Morphologic scores 4 hr: 2.8
  Morphologic scores 6 hr: 2.8

## c1cnc2cc3c(cc2n1)[C@@H]1CNC[C@H]3C1 [Varenicline]
SK-N-MC neurons [5]; cells treated with compound and Abeta42, similar at the other time points
  Protection of cells from Abeta42 toxicity (observed morphology): protected from Abeta42 toxicity

## Abeta40
[6]; 3 hours
  Intracellular accumulation of the peptide: little detectable accumulation

## Abeta42
[7]
  Cell death: cell death
[6]; 3 hours
  Intracellular accumulation of the peptide: prominent, irregularly shaped Abeta42-positive deposits
[6]; within 30 minutes
  Intracellular accumulation of the peptide: some accumulation of Abeta42-positive material
C57BL/6J mice; 2-week pilot study, 6 mice per group
  Learning performance in words: did not impact learning impairment
C57BL/6J mice; 2 NA scores estimated as ~500
  Entries to reach the learning criterion, group value: ~230 entries
C57BL/6J mice; individual mouse, 2-week study, NA = too impaired to test, T1, T2 second Abeta42 dose most likely subcutaneous
  Entries (entries to 80% correct learning criterion): 307 and 130 and 180 and 264 and 134 and 370
A7R [8]
  Ki: 4.1 pM
A7R [9]
  Ki: 5 pM

## Alpha-bungarotoxin
SK-N-MC neurons [4]
  Abeta42 immunolabeling scores 1 hr: 0/1
  Abeta42 immunolabeling scores 2 hr: 1/0
  Abeta42 immunolabeling scores 4 hr: 1/0
[6]
  Inhibition of Abeta42 accumulation in transfected cells: inhibited Abeta42 accumulation
SK-N-MC neurons [5]
  Morphologic scores 6 hr: 2.5

## Solanezumab: yet another anti-amyloid antibody
amyloid
  Clinical trial efficacy end points: failed to reach statistical significance

## VEGF
Ischemic brain
  Angiogenesis in the ischemic brain: enhanced angiogenesis
  Neurological recovery: improved neurological recovery
